From ChEMBL document CHEMBL4732067, “Synthesis and evaluation of new compounds bearing 3-(4-aminopiperidin-1-yl)methyl magnolol scaffold as anticancer agents for the treatment of non-small cell lung cancer via targeting autophagy” (Eur J Med Chem, 2021)
Activity calls are given as the source filed them. No cut-off for these calls is given here.

Experiments:
NCI-H460 [1] = experiment: Induction of apoptosis in human NCI-H460 cells assessed as late apoptotic cells at 2 uM after 48 hrs by Annexin V-FITC/propidium iodide staining based flow cytometric analysis (reference value: 3.995 %); type: functional
NCI-H460 [2] = experiment: Antitumor activity against human NCI-H460 cells xenografted in nude BABL/c mouse assessed as tumor growth inhibition at 20 mg/kg, po administered once daily and measured every two days in presence of chloroquine diphosphate by caliper method relative to control; type: functional; conditions: 48 h, read-out: TGI
[3] = Toxicity in nude BALB/c mouse xenografted with C26 cells assessed as abnormalities in heart size and morphology at 50 mg/kg, po administered once daily; type: organism-based; conditions: in vivo
NCI-H460 [4] = experiment: Induction of apoptosis in human NCI-H460 cells assessed as late apoptotic cells at 10 uM after 48 hrs by Annexin V-FITC/propidium iodide staining based flow cytometric analysis (reference value: 3.995 %); type: functional
[5] = Metabolic stability in human liver microsomes assessed as intrinsic clearance per gram protein; type: ADME, Microsome
NCI-H460 [6] = experiment: Induction of apoptosis in human NCI-H460 cells assessed as late apoptotic cells at 1 uM after 48 hrs by Annexin V-FITC/propidium iodide staining based flow cytometric analysis (reference value: 3.995 %); type: functional
NCI-H460 [7] = experiment: Induction of cell cycle arrest in human NCI-H460 cells assessed as accumulation at S phase at 5 uM incubated for 24 hrs by propidium iodide staining based flow cytometry (reference value: 29.32 %); type: functional
NCI-H460 [8] = experiment: Induction of autophagy in human NCI-H460 cells assessed as up regulation of LC3-2 protein expression after 24 hrs by Western blot analysis; type: functional, cell-based; conditions: dose 0.5-10 µM
NCI-H460 [9] = experiment: Induction of apoptosis in human NCI-H460 cells assessed as early apoptotic cells at 2 uM after 48 hrs by Annexin V-FITC/propidium iodide staining based flow cytometric analysis (reference value: 3.980 %); type: functional
NCI-H460 [10] = experiment: Induction of apoptosis in human NCI-H460 cells assessed as viable cells at 5 uM after 48 hrs by Annexin V-FITC/propidium iodide staining based flow cytometric analysis (reference value: 91.528 %); type: functional; conditions: read-out: Activity
[11] = Toxicity in nude BALB/c mouse xenografted with C26 cells assessed as abnormalities in kidney size and morphology at 50 mg/kg, po administered once daily; type: organism-based; conditions: in vivo
[12] = Toxicity in nude BALB/c mouse xenografted with C26 cells assessed as abnormalities in liver size and morphology at 50 mg/kg, po administered once daily; type: organism-based; conditions: in vivo
NCI-H460 [13] = experiment: Antitumor activity against human NCI-H460 cells xenografted in nude BABL/c mouse assessed as tumor growth inhibition at 20 mg/kg, po administered once daily and measured every two days by caliper method relative to control; type: functional; conditions: 48 h, read-out: TGI
HCC827 = experiment: Antiproliferative activity against human HCC827 cells assessed as reduction in cell viability after 72 hrs by MTT assay; type: functional, cell-based; conditions: HCC827, 72 h
A549 = experiment: Antiproliferative activity against human A549 cells expressing wild type EGFR assessed as reduction in cell viability after 72 hrs by MTT assay; type: functional, cell-based; conditions: A549, 72 h
NCI-H460 [14] = experiment: Induction of cell cycle arrest in human NCI-H460 cells assessed as accumulation at G2/M phase at 0.5 uM incubated for 24 hrs by propidium iodide staining based flow cytometry (reference value: 16.71 %); type: functional
NCI-H460 [15] = experiment: Induction of apoptosis in human NCI-H460 cells assessed as viable cells at 10 uM after 48 hrs by Annexin V-FITC/propidium iodide staining based flow cytometric analysis (reference value: 91.528 %); type: functional; conditions: read-out: Activity
NCI-H1650 = experiment: Antiproliferative activity against human NCI-H1650 cells expressing EGFR mutant assessed as reduction in cell viability after 72 hrs by MTT assay; type: functional, cell-based; conditions: NCI-H1650, 72 h
NCI-H460 [16] = experiment: Induction of cell cycle arrest in human NCI-H460 cells assessed as accumulation at G2/M phase at 5 uM incubated for 24 hrs by propidium iodide staining based flow cytometry (reference value: 16.71 %); type: functional
NCI-H460 [17] = experiment: Induction of cell cycle arrest in human NCI-H460 cells assessed as accumulation at G0/G1 phase at 0.5 uM incubated for 24 hrs by propidium iodide staining based flow cytometry (reference value: 53.97 %); type: functional
NCI-H460 [18] = experiment: Induction of apoptosis in human NCI-H460 cells assessed as viable cells at 1 uM after 48 hrs by Annexin V-FITC/propidium iodide staining based flow cytometric analysis (reference value: 91.528 %); type: functional; conditions: read-out: Activity
NCI-H460 [19] = experiment: Induction of autophagy in human NCI-H460 cells assessed as degradation of SQSTM1/p62 at 0.5 to 10 uM measured after 24 hrs by Western blot analysis; type: functional, cell-based; conditions: dose 0.5-10 µM
[20] = Toxicity in nude BALB/c mouse xenografted with C26 cells assessed as abnormalities in lung size and morphology at 50 mg/kg, po administered once daily; type: organism-based; conditions: in vivo
NCI-H460 [21] = experiment: Induction of apoptosis in human NCI-H460 cells assessed as early apoptotic cells at 10 uM after 48 hrs by Annexin V-FITC/propidium iodide staining based flow cytometric analysis (reference value: 3.980 %); type: functional
NCI-H460 [22] = experiment: Induction of apoptosis in human NCI-H460 cells assessed as viable cells at 2 uM after 48 hrs by Annexin V-FITC/propidium iodide staining based flow cytometric analysis (reference value: 91.528 %); type: functional; conditions: read-out: Activity
NCI-H460 [23] = experiment: Induction of autophagy in human NCI-H460 cells assessed as up regulation of Beclin 1 protein expression after 24 hrs by Western blot analysis; type: functional, cell-based; conditions: dose 0.5-10 µM
NCI-H460 [24] = experiment: Induction of apoptosis in human NCI-H460 cells assessed as early apoptotic cells at 5 uM after 48 hrs by Annexin V-FITC/propidium iodide staining based flow cytometric analysis (reference value: 3.980 %); type: functional
NCI-H460 [25] = experiment: Induction of cell cycle arrest in human NCI-H460 cells assessed as accumulation at G2/M phase at 1 uM incubated for 24 hrs by propidium iodide staining based flow cytometry (reference value: 16.71 %); type: functional
NCI-H460 [26] = experiment: Induction of apoptosis in human NCI-H460 cells assessed as necrotic cells at 5 uM after 48 hrs by Annexin V-FITC/propidium iodide staining based flow cytometric analysis (reference value: 0.498 %); type: functional
NCI-H460 [27] = experiment: Induction of cell cycle arrest in human NCI-H460 cells assessed as accumulation at G0/G1 phase at 1 uM incubated for 24 hrs by propidium iodide staining based flow cytometry (reference value: 53.97 %); type: functional
L929 = experiment: Cytotoxicity against mouse L929 cells; type: cell-based
NCI-H460 [28] = experiment: Antiproliferative activity against human NCI-H460 cells assessed as reduction in cell viability after 72 hrs by MTT assay; type: functional, cell-based; conditions: NCI-H460, 72 h
[29] = Toxicity in nude BALB/c mouse xenografted with human NCI-H460 cells assessed as abnormalities in tissue at 20 to 40 mg/kg, po administered once daily; type: organism-based; conditions: in vivo, dose 20-40 mg/kg
NCI-H460 [30] = experiment: Induction of cell cycle arrest in human NCI-H460 cells assessed as accumulation at S phase at 0.5 uM incubated for 24 hrs by propidium iodide staining based flow cytometry (reference value: 29.32 %); type: functional
NCI-H460 [31] = experiment: Antitumor activity against human NCI-H460 cells xenografted in nude BABL/c mouse assessed as tumor growth inhibition at 40 mg/kg, po administered once daily and measured every two days by caliper method relative to control; type: functional; conditions: 48 h, read-out: TGI

With C=CCc1ccc(OC(C)C)c(-c2cc(CC=C)cc(CN3CCC(N)CC3)c2O)c1 the Activity (NCI-H460 [1]) was 4.926%, the inhibition in vivo at 20 mg/kg (NCI-H460 [2]) was 55.9% and the Activity [3] was “Non-Toxic”. It also gave an Activity (NCI-H460 [4]) of 33.48%, a CLint [5] of 8.8 mL/min/g and an Activity (NCI-H460 [6]) of 3.979%. For the same compound, the Activity (NCI-H460 [7]) was 22.61%, the Activity (NCI-H460 [8]) was “Dose-dependent effect” and the Activity (NCI-H460 [9]) was 5.363%. The viability at 5 µM (NCI-H460 [10]) was 53.5%, the Activity [11] was “Non-Toxic” and the Activity [12] was “Non-Toxic”. The inhibition in vivo at 20 mg/kg (NCI-H460 [13]) was 33.5%, the IC50 (HCC827) was 0.63 µM and the IC50 (A549) was 0.91 µM. It also gave an Activity (NCI-H460 [14]) of 21.64%, a viability at 10 µM (NCI-H460 [15]) of 30% and an IC50 (NCI-H1650) of 0.82 µM. It also gave an Activity (NCI-H460 [16]) of 17.5%, an Activity (NCI-H460 [17]) of 54.79% and a viability at 1 µM (NCI-H460 [18]) of 91.1%. The Activity (NCI-H460 [19]) was “Active”, the Activity [20] was “Non-Toxic” and the Activity (NCI-H460 [21]) was 34.82%. For the same compound, the viability at 2 µM (NCI-H460 [22]) was 88.8%, the Activity (NCI-H460 [23]) was “Dose-dependent effect” and the Activity (NCI-H460 [24]) was 30.087%. For the same compound, the Activity (NCI-H460 [25]) was 19.64%, the Activity (NCI-H460 [26]) was 0.608% and the Activity (NCI-H460 [27]) was 56.47%. For the same compound, the IC50 (L929) was 6.24 µM, the IC50 (NCI-H460 [28]) was 0.86 µM and the Activity [29] was “Non-Toxic”. The Activity (NCI-H460 [30]) was 23.58% and the inhibition in vivo at 40 mg/kg (NCI-H460 [31]) was 56.8%.
